The text below walks through data of patent US4785017A, “3,4-dihydro-2H-1-benzopyran derivatives” (Hoffmann-La Roche Inc., priority 1984, dated 1988).

The test system of assay [1] is SRS-A-induced constriction of the guinea pig ileum. The assay can be described thus: Guinea Pig Ileum, In Vitro: inhibition of SRS-A-induced constriction (SRS-A antagonism). Particulars: SRS-A antagonism; SRS-A at EC50, 37° C., with atropine sulfate and pyrilamine maleate; read-out: In vitro Guinea Pig ileum IC50. Here is the method: (a) Guinea Pig Ileum, In Vitro:
The guinea pig ileum bioassay system has been described by Orange Austen, Adv. Immunol. […] A 1.5 cm segment is removed from animals weighing 300-400 g and suspended in an organ bath containing 10 ml of Tyrodes solution with 10^-6 M atropine sulfate and 10^-6 M pyrilamine maleate. […] The SRS-A utilized in this screen is obtained by challenging chopped lung fragments from actively sensitized guinea pigs with egg albumin, in vitro. A dose-response curve to SRS-A challenge is established for the ileum. […] The drug concentration which inhibits, by 50%, the SRS-A-induced constriction of the guinea pig ileum is determined.

Assay [2] has as its system leukotriene D4 induced bronchoconstriction. Description: Guinea Pig Bronchoconstriction, In Vivo (Aerosol), leukotriene D4 challenge. Details: species or system guinea pig (Hartley strain). Particulars: aerosol assay with leukotriene E4 replaced with leukotriene D4.
In assay [3] the test system is leukotriene E4 induced bronchoconstriction. Description: Guinea Pig Bronchoconstriction, In Vivo (Aerosol), leukotriene E4 challenge. Details: species or system guinea pig (Hartley strain). To be noted: five minute aerosol exposure (% w/v aerosol solution); maximum constrictory dose of leukotriene E4 i.v.; propanolol pretreatment. Here is the method: (b) Guinea Pig Bronchoconstriction, In Vivo (Aerosol):
Male guinea pigs (Hartley strain) weighing 300 to 500 g are anesthetized with urethane (2 g/kg) intraperitoneally and a polyethylene cannula is inserted into the jugular vein for drug administration. Tracheal pressure is recorded from a cannula inserted in the trachea and connected to a Statham pressure transducer. After surgical preparation of the animals, a period of time is allowed for pulmonary functions to stabilize. The test compound is administered according to the following protocol. Propanolol (0.1 mg/kg) is administered intravenously while the animals breathed spontaneously. Five minutes thereafter, the animals are exposed for a five minute period to a 1% (w/v) aerosol solution of test compound (adjusted to an alkaline pH where necessary for drug solubilization) or to distilled water of the appropriate pH (for control purposes). A Monaghan (Model 750) ultrasonic nebulizer is used to administer all test compounds by inhalation. The nebulizer ultrasonic frequency is adjusted to produce particles in the 1-8μ diameter range (average 3μ). Aqueous solutions are prepared freshly and introduced into the chamber of the nebulizer. The output of the nebulizer is made available to the animal by directing a bias flow of aerosol through a Y tube connected to the tracheal cannula. At the end of the exposure period, the animals are paralyzed with succinylcholine (1.2 mg/kg, i.v.) and mechanically respirated (Harvard rodent respirator) at 40 breaths/minute and 2.5 cc tidal volume. Animals are then challenged with a maximum constrictory dose of leukotriene E4 delivered intravenously 30 seconds after administration of the succinylcholine.
The change (cm H2 O) between pre and peak ventilatory pressure readings averaged for three control animals and five drug treated animals. The percent inhibition is calculated from the following formula: [formula] When various drug concentrations are tested, the percent inhibition at each concentration is plotted as log concentration (abscissa) versus percent inhibition (ordinate) and the IC50 is determined from linear regression analysis.

Assay [4] concerns leukotriene D4 induced bronchoconstriction. Description: Oral Testing of Leukotriene Antagonists, leukotriene D4 challenge. Format: in vivo, guinea pig (Hartley strain, Charles River). To be noted: 10 mg/kg by the oral route, two hours prior to challenge with leukotriene D4. Here is the method: (c) Oral Testing of Leukotriene Antagonists
Male guinea pigs (Hartley strain, Charles River) weighing 400 to 600 g were anesthetized with urethane (2 g/kg) intraperitoneally and a polyethylene cannula was inserted into the jugular vein for intravenous drug administration. Tracheal pressure (cm water) was recorded from a Statham pressure transducer. After surgical preparation of the animals, a period of time was allowed for spontaneous breathing to stabilize. […] Two minutes later, spontaneous breathing was arrested with succinylcholine chloride (1.2 mg/kg, i.v.) and the animals ventilated with a Harvard (Model #680) small animal respirator set at 40 breaths per minute and 4.0 cc stroke volume. The animals were challenged with a maximum constrictory does of either leukotriene C4 or leukotriene D4 or leukotriene E4 (25 ug/kg, i.v.) at 5 minutes. Control vehicle or test drug (adjusted to an alkaline pH where necessary for drug solubilization) was administered (10 mg/kg, p.o.) two hours prior to challenge with leukotriene. In order to determine the ID50 for a test drug, the dose is varied from 10 mg/kg, p.o. to 100, 50, 30, 20, 5, 3 and 1 mg/kg, p.o.
In order to determine oral duration of action, the time between exposure to test drug and challenge with leukotriene is varied.

In the case of `CCCc1c(OCCCCCOc2cc3c(cc2C(C)=O)CC[C@@H](C(=O)O)O3)ccc(C(C)=O)c1O` [(S)-6-acetyl-7-[5-(4-acetyl-3-hydroxy-2-propylphenoxy)pentyloxy]-3,4-dihydro-2H-1-benzopyran-2-carboxylic acid], the IC50 in assay [1] amounted to 60 nM. The “IC50 value in inhibiting bronchoconstriction (aerosol)” value in assay [2] is listed as 0.0018%.
On the same counts, the results for `CCCc1c(OCCCCCOc2cc3c(cc2C(C)=O)CC[C@H](C(=O)O)O3)ccc(C(C)=O)c1O` [(R)-6-acetyl-7-[5-(4-acetyl-3-hydroxy-2-propylphenoxy)pentyloxy]-3,4-dihydro-2H-1-benzopyran-2-carboxylic acid] are 100 nM and 0.018%.
As to `CCCc1c(OCCCCCOc2cc3c(cc2C(C)=O)CCC(C(=O)O)O3)ccc(C(C)=O)c1O` (racemic) [racemic-6-acetyl-7-[5-(4-acetyl-3-hydroxy-2-propylphenoxy)pentyloxy]-3,4-dihydro-2H-1-benzopyran-2-carboxylic acid], the IC50 in assay [1] stood at 60 nM. The “Guinea Pig Bronchoconstriction In vivo aerosol - IC50(%)” value in assay [3] is given as 0.052%. Moreover, the “IC50 value in inhibiting bronchoconstriction (aerosol)” value in assay [2] is 0.0056%.
On to `CCCc1c(OCCCCCOc2cc3c(cc2C(C)=O)CCC(CCCCC(=O)O)O3)ccc(C(C)=O)c1O` (racemic) [racemic-6-acetyl-7-[5-(4-acetyl-3-hydroxy-2-propylphenoxy)pentyloxy]-3,4-dihydro-2H-1-benzopyran-2-pentanoic acid], for which, in assay [4], the “inhibition of leukotriene D4 induced bronchoconstriction” value came to 46±14%.
Turning to `CCCc1c(OCCCOc2ccc3c(c2)OC(CC(=O)O)CC3)ccc(C(C)=O)c1O` (racemic) [racemic-7-[3-(4-acetyl-3-hydroxy-2-propylphenoxy)propoxy]-3,4-dihydro-2H-1-benzopyran-2-acetic acid], the IC50 in assay [1] came out at 100 nM. In addition, the “Guinea Pig Bronchoconstriction In vivo aerosol - IC50(%)” value in assay [3] stood at 0.67%.
The corresponding values for `CCCc1c(OCCCOc2ccc3c(c2)CCC(CC(=O)O)O3)ccc(C(C)=O)c1O` (racemic) [racemic-6-[3-(4-acetyl-3-hydroxy-2-propylphenoxy)propoxy]-3,4-dihydro-2H-1-benzopyran-2-acetic acid] are 400 nM and 1.0%.
In the case of `CCCc1c(OCCCOc2ccc3c(c2)CCC(C(=O)O)O3)ccc(C(C)=O)c1O` (racemic) [racemic-6-[3-(4-acetyl-3-hydroxy-2-propylphenoxy)propoxy]-3,4-dihydro-2H-1-benzopyran-2-carboxylic acid], in assay [1], the IC50 worked out at 500 nM. Further, the “Guinea Pig Bronchoconstriction In vivo aerosol - IC50(%)” value in assay [3] is given as 0.50%.
The corresponding values for `CCCc1c(OCCCOc2c(C(C)=O)cc3c(c2CCC)OC(C(=O)O)CC3)ccc(C(C)=O)c1O` (racemic) [racemic-6-acetyl-7-[3-(4-acetyl-3-hydroxy-2-propylphenoxy)propoxy]-3,4-dihydro-8-propyl-2H-1-benzopyran-2-carboxylic acid] are 100 nM and 0.38%.
On the same counts, the results for `CCCc1c(OCCCCCCCOc2cc3c(cc2C(C)=O)CCC(C(=O)O)O3)ccc(C(C)=O)c1O` (racemic) [racemic-6-acetyl-7-[7-(4-acetyl-3-hydroxy-2-propylphenoxy)heptyloxy]-3,4-dihydro-2H-1-benzopyran-2-carboxylic acid] are 1000 nM and 1.0%.
The corresponding values for `CCCc1c(OCCCOc2ccc3c(c2)OCC(C(=O)O)C3)ccc(C(C)=O)c1O` (racemic) [racemic 7-[3-(4-acetyl-3-hydroxy-2-propylphenoxy)propoxy]-3,4-dihydro-2H-1-benzopyran-3-carboxylic acid] are 100 nM and > 1.0%.
For the molecule `CCCc1c(OCCCOc2ccc3c(c2)OC(C(=O)O)CC3)ccc(C(C)=O)c1O` (racemic) [racemic-7-[3-(4-acetyl-3-hydroxy-2-propyl)phenoxy)propoxy]-3,4-dihydro-2H-1-benzopyran-2-carboxylic acid], the IC50 in assay [1] amounted to 60 nM. For the same molecule, in assay [3], the “Guinea Pig Bronchoconstriction In vivo aerosol - IC50(%)” value was determined as 0.14%.
On the same counts, the results for `CCCc1c(OCCCOc2ccc3c(c2CCC)OC(C)(CCC(=O)O)CC3)ccc(C(C)=O)c1O` (racemic) [racemic-7-[3-(4-acetyl-3-hydroxy-2-n-propylphenoxy)propoxy]-3,4-dihydro-2-methyl-8-n-propyl-2H-1-benzopyran-2-propanoic acid] are 500 nM and 0.71%.
In the case of `CCCc1c(OCCCOc2ccc3c(c2)OC(C)(CCC(=O)O)CC3)ccc(C(C)=O)c1O` (racemic) [racemic-7-[3-(4-acetyl-3-hydroxy-2-propylphenoxy)propoxy]-3,4-dihydro-2-methyl-2H-1-benzopyran-2-propanoic acid], the IC50 in assay [1] is 100 nM. For the same molecule, the “Guinea Pig Bronchoconstriction In vivo aerosol - IC50(%)” value in assay [3] is on record as > 1.0%.
